Assay results taken from patent US10858335B2 (Rigel Pharmaceuticals, Inc., priority 2014, dated 2020).

Test system: GDF8 signaling (p-SMAD-3 (Ser423/425))
Test: AlphaScreen SureFire SMAD3 (p-Ser423/425) assay, GDF8-stimulated cells (GDF pSMAD)
Format: cell-based
Details: Mus musculus, MPC-11, MPC11; GDF8-stimulated; p-SMAD3 AlphaScreen; read-out: GDF pSMAD (MPC11) (inhibition of GDF8 signaling)

| Compound | IC50 |
| --- | --- |
| CCNC(=O)Nc1cnc(-c2ccc(F)c(C)c2)c(-c2ccc3nccn3c2)c1 [compound 220, 1-Ethyl-3-(6-(4-fluoro-3-methylphenyl)-5-(imidazo[1,2-a]pyridin-6-yl)pyridin-3-yl)urea] | 8.62 µM |
| Cc1cc(-c2ncc(CN3CCOCC3)cc2-c2ccc3nccnc3c2)ccc1F [compound 225, 4-((6-(4-Fluoro-3-methylphenyl)-5-(quinoxalin-6-yl)pyridin-3-yl)methyl)morpholine] | 9.46 µM |
| Cc1cc(-c2ncc(CN(C)C)cc2-c2ccc3nccnc3c2)ccc1F [compound 226, 1-(6-(4-Fluoro-3-methylphenyl)-5-(quinoxalin-6-yl)pyridin-3-yl)-N,N-dimethylmethanamine] | 10 µM |
| COCc1cnc(-c2ccc(F)c(C)c2)c(-c2ccc3nccnc3c2)c1 [compound 228, 6-(2-(4-Fluoro-3-methylphenyl)-5-(methoxymethyl)pyridin-3-yl)quinoxaline] | 9.76 µM |
| Cc1cc(-c2ncc(CN3CCN(C)CC3)cc2-c2ccc3nccnc3c2)ccc1F [compound 230, 6-(2-(4-Fluoro-3-methylphenyl)-5-((4-methylpiperazin-1-yl)methyl)pyridin-3-yl)quinoxaline] | 10.8 µM |
| Cc1cc(-c2ncc(COCC(=O)N(C)C)cc2-c2ccc3nccnc3c2)ccc1F [compound 231, 2-((6-(4-Fluoro-3-methylphenyl)-5-(quinoxalin-6-yl)pyridin-3-yl)methoxy)-N,N-dimethylacetamide] | 10.8 µM |
| CNC(=O)COCc1cnc(-c2ccc(F)c(C)c2)c(-c2ccc3nccnc3c2)c1 [compound 232, 2-((6-(4-Fluoro-3-methylphenyl)-5-(quinoxalin-6-yl)pyridin-3-yl)methoxy)-N-methylacetamide] | 10.6 µM |
| Cc1cc(-c2ncc(NC3CCCCC3O)cc2-c2ccc3nccnc3c2)ccc1F (centres unmarked) [compound 243, 2-((6-(4-Fluoro-3-methylphenyl)-5-(quinoxalin-6-yl)pyridin-3-yl)amino)cyclohexan-1-ol] | 11.9 µM |
| Cc1cc(-c2ncccc2-c2ccc3cnccc3c2)ccc1F [compound 249, 6-(2-(4-Fluoro-3-methylphenyl)pyridin-3-yl)isoquinoline] | 8.83 µM |
| Cc1cccc(-c2ncccc2-c2ccc3ncn(CCCN4CCOCC4)c3c2)c1 [compound 250, 4-(3-(6-(2-m-Tolylpyridin-3-yl)-1H-benzo[d]imidazol-1-yl)propyl)morpholine] | 10.5 µM |
| Cc1cccc(-c2ncccc2-c2ccc3ncn(CCCN4CCN(C)CC4)c3c2)c1 [compound 251, 1-(3-(4-Methylpiperazin-1-yl)propyl)-6-(2-m-tolylpyridin-3-yl)-1H-benzo[d]imidazole] | 17.8 µM |
| Cc1cc(-c2ncccc2-c2ccc3ncn(CCCN4CCOCC4)c3c2)ccc1F [compound 252, 4-(3-(6-(2-(4-fluoro-3-methylphenyl)pyridin-3-yl)-1H-benzo[d]imidazol-1-yl)propyl)morpholine] | 12.7 µM |
| Cc1cc(-c2ncccc2-c2ccc3ncn(CCCN4CCN(C)CC4)c3c2)ccc1F [compound 253, 1-(3-(4-Methylpiperazin-1-yl)propyl)-6-(2-(4-fluoro-3-methylphenyl)pyridin-3-yl)-1H-benzo[d]imidazole] | 12.4 µM |
| Cc1cc(-c2ncccc2-c2ccn3c(C(=O)NCCCN4CCN(C)CC4)ncc3c2)ccc1F [compound 264, 7-(2-(4-Fluoro-3-methylphenyl)pyridin-3-yl)-N-(3-(4-methylpiperazin-1-yl)propyl)imidazo[1,5-a]pyridine-3-carboxamide] | 9.15 µM |

The next compounds have a lower IC50 than those just listed; values first:

| IC50 | Compound |
| --- | --- |
| 0.707 µM | N#Cc1cnc2ccc(-c3cccnc3-c3ccc(F)c(C4CC4)c3)cn12 [compound 223, 6-(2-(3-Cyclopropyl-4-fluorophenyl)pyridin-3-yl)imidazo[1,2-a]pyridine-3-carbonitrile] |
| 0.621 µM | NC(=O)c1cnc2ccc(-c3cccnc3-c3ccc(F)c(C4CC4)c3)cn12 [compound 224, 6-(2-(3-Cyclopropyl-4-fluorophenyl)pyridin-3-yl)imidazo[1,2-a]pyridine-3-carboxamide] |
| 6.69 µM | Cc1cc(-c2ncc(COCC(N)=O)cc2-c2ccc3nccnc3c2)ccc1F [compound 233, 2-((6-(4-Fluoro-3-methylphenyl)-5-(quinoxalin-6-yl)pyridin-3-yl)methoxy)acetamide] |
| 0.266 µM | Cc1cc(-c2ncc(N)cc2-c2ccc3nccnc3c2)ccc1F [compound 239, 6-(4-Fluoro-3-methylphenyl)-5-(quinoxalin-6-yl)pyridin-3-amine] |
| 7.45 µM | Cc1cc(-c2ncc(NC3CCN(C)CC3)cc2-c2ccc3nccnc3c2)ccc1F [compound 240, 6-(4-Fluoro-3-methylphenyl)-N-(1-methylpiperidin-4-yl)-5-(quinoxalin-6-yl)pyridin-3-amine] |
| 4.06 µM | Cc1cc(-c2ncc(NC(C)C)cc2-c2ccc3nccnc3c2)ccc1F [compound 241, 6-(4-Fluoro-3-methylphenyl)-N-isopropyl-5-(quinoxalin-6-yl)pyridin-3-amine] |
| 0.798 µM | Cc1cc(-c2ncc(NCc3cccnc3)cc2-c2ccc3nccnc3c2)ccc1F [compound 244, 6-(4-Fluoro-3-methylphenyl)-N-(pyridin-3-ylmethyl)-5-(quinoxalin-6-yl)pyridin-3-amine] |
| 1.26 µM | Cc1cc(-c2ncc(NCc3ccncc3)cc2-c2ccc3nccnc3c2)ccc1F [compound 245, 6-(4-Fluoro-3-methylphenyl)-N-(pyridin-4-ylmethyl)-5-(quinoxalin-6-yl)pyridin-3-amine] |
| 1.29 µM | Cc1cc(-c2ncc(NCc3ccccn3)cc2-c2ccc3nccnc3c2)ccc1F [compound 246, 6-(4-Fluoro-3-methylphenyl)-N-(pyridin-2-ylmethyl)-5-(quinoxalin-6-yl)pyridin-3-amine] |
| 3.2 µM | Cc1cc(-c2ncc(NC3CCN(C)CC3)cc2-c2ccc3ncsc3c2)ccc1F [compound 247, 5-(Benzo[d]thiazol-6-yl)-6-(4-fluoro-3-methylphenyl)-N-(1-methylpiperidin-4-yl)pyridin-3-amine] |
| 0.39 µM | Cc1cc(-c2ncccc2-c2ccc3nc(F)cn3c2)ccc1F [compound 254, 2-Fluoro-6-(2-(4-fluoro-3-methylphenyl)pyridin-3-yl)imidazo[1,2-a]pyridine] |
| 1.84 µM | Cc1cc(-c2ncccc2-c2ccc3cnc(C(=O)O)n3c2)ccc1F [compound 257, 6-(2-(4-Fluoro-3-methylphenyl)pyridin-3-yl)imidazo[1,5-a]pyridine-3-carboxylic acid] |
| 1.27 µM | Cc1cc(-c2ncccc2-c2ccn3c(C(=O)O)ncc3c2)ccc1F [compound 258, 7-(2-(4-Fluoro-3-methylphenyl)pyridin-3-yl)imidazo[1,5-a]pyridine-3-carboxylic acid] |
| 8.12 µM | Cc1cc(-c2ncccc2-c2ccn3c(C(=O)NCCN4CCN(C)CC4)ncc3c2)ccc1F [compound 265, 7-(2-(4-Fluoro-3-methylphenyl)pyridin-3-yl)-N-(2-(4-methylpiperazin-1-yl)ethyl)imidazo[1,5-a]pyridine-3-carboxamide] |
| 4.54 µM | Cc1cc(-c2ncccc2-c2ccn3c(C(=O)NCCCN4CCOCC4)ncc3c2)ccc1F [compound 266, 7-(2-(4-Fluoro-3-methylphenyl)pyridin-3-yl)-N-(3-morpholinopropyl)imidazo[1,5-a]pyridine-3-carboxamide] |
